The record followed here is patent publication US8119689B2, “Adjuvants on the basis of bisacyloxypropylcystene conjugates and derivatives and their uses in pharmaceutical compositions” (Helmholtz-Zentrum Fuer Infektionsforschung GmbH, priority 2005, dated 2012).

Assay [1] has as its system β-gal antigen-specific IgG isotypes. The assay can be described thus: β-gal-specific IgG isotypes in sera of immunized mice (isotype ELISA). Type of assay: in vivo. To be noted: after intranasal and after parenteral administration. On the procedure: FIG. 8: FIG. 8 provides the analysis of beta-Gal specific IgG isotypes in sera of immunized mice. Anti-beta-Gal specific IgG isotypes of the groups immunized with PBS, (control) beta-Gal+either BPPcysGlyc4armPEG or BPPcysPEG (FIG. 8A) or BPPcysAda or Ada alone (FIG. 8B), or beta-Gal alone of mice immunized by the i.n. or s.c. route were determined by ELISA. Results are expressed as end point titers. IgG titers represent the mean of five animals per experimental group. Differences were statistically significant at p<0.05 (*) with respect to mice receiving antigen alone. One representative out of four independent experiments is shown. SEM is indicated by vertical lines.
Isotyp ELISA: 96-well Nunc-Immuno MaxiSorp assay plates (Nunc, Roskilde, Denmark) were coated with 100 μl of β-gal (Boehringer, Mannheim, Germany) at 5 μg/ml in 0.05 M carbonate buffer (pH 8.2) per well. Serial two-fold dilutions of sera or lavages in PBS with 1% BSA and 0.05% Tween 20 were added (100 μl/well), and plates incubated for 2 h at 37° C. After washing, biotin-conjugated rat anti-mouse IgG1 or IgG2a (Pharmingen, Hamburg, Germany) were added to determine IgG subclasses. Plates were incubated for an additional 1 h at 37° C. After four washes, 100 μl of peroxidase-conjugated streptavidin (Pharmingen) was added to cells and plates incubated at 37° C. for 30 min. After four washes, reactions were developed with ABTS in 0.1 M citrate-phosphate buffer (pH 4.35) containing 0.01% H2O2. To determine the concentration of IgG subclasses in serum, standard curves were obtained by coating the wells with an isotype-specific goat anti-mouse IgG, and then by incubating with purified mouse IgG1 or IgG2a antibodies (Dianova, Hamburg, Germany).

Assay [2] concerns primary bone marrow-derived dendritic cells. Kind of assay: In vitro stimulation of primary bone marrow-derived murine dendritic cells, surface markers by flow cytometry. Particulars: concentration enhanced to 100 ng/ml (not shown). The assay is classed as cell-based, BALB/c mice. As for the experimental part: FIG. 1: FIGS. 1A-1C show the results for In vitro studies using primary dendritic cells. Primary bone marrow-derived dendritic cell cultures were obtained from BALB/c mice by in vitro maturation of precursors using recombinant GM-CSF (5×10^4 U/ml). Mature dendritic cells were stimulated with 10 ng/ml of E. coli lypopolysaccharide (LPS) or 50 and 100 ng/ml of BPPcysGlyc4armPEG and BPPcysAda, respectively. Then, cells were double-labeled with antibodies specific for CD11c (dendritic cell marker) in combination with anti-CD40, anti-CD54, anti-CD80, anti-CD86, anti-MHC class 1, or anti-MHC class 11 antibodies. The expression of CD40, CD80, CD54, CD86, anti-MHC class 1, and MHC class 11 in CD11c-gated cells were analyzed by flow cytometry.
Experimental protocol: primary bone marrow-derived dendritic cell cultures were obtained from BALB/c mice following in vitro maturation of precursors in the presence of recombinant GM-CSF (5×10^4 U/ml), according to established protocols. Mature dendritic cells were stimulated with 10 ng/ml of E. coli lypopolysaccharide (LPS) or 5 ng/ml of BPPcysGlyc4armPEG, after 12, 24 and/or 48 h stimulation cells were analyzed by flow cytometry to assess the expression of surface markers which are relevant for their antigen presentation capacity.
In order to identify compounds which may have potential as adjuvants for in vivo applications in the vaccinology field, a first in vitro screening based on the used of primary cultures of bone marrow-derived dendritic cells was established. Dendritic cells were selected since they represent the most efficient antigen presenting cells and they play a key role by primary immune responses. In fact, they are the only cell type able to activate resting T cells initiating primary immune responses in vivo. Thus, dendritic cell cultures were treated with the tested moieties or LPS, which was used as a positive control. At different time intervals, samples were taken, stained with fluorescent-labeled antibodies specific for cellular markers critical for the antigen presenting capacities of dendritic cells, and analyzed by flow cytometry.
To test the stimulatory capacity of BPPCysAda on maturation and activation of bone marrow-derived DC, immature DC's were stimulated in vitro with BPPCysAda. Surface markers on CD11c+-gated DC were investigated by FACS analysis after 16 or 40 h pre-treatment.

For assay [3], the system named is peritoneal macrophages from C3H/HeJ mice. Kind of assay: Nitrogen monoxide release assay (macrophage activation). Type of assay: cell-based. Particulars: 25 mM octylglucoside in first dilution step. As for the experimental part: NO release of restimulated macrophages using different concentrations (serial dilutions) of the macrophage activator BPPcysGlyc4armPEG as adjuvant. As positive control, the NO release of macrophages in response to serial dilutions of Malp-2 and in response to 4armPEG molecules (negative control) are shown.
In brief, peritoneal macrophages from C3H/HeJ mice were used as the macrophage source. They were cultured in 96-well microtiter plates and stimulated simultaneously with rIFN-γ and a serial dilution of macrophage activator. Insofar as necessary (i.e. R-Malp-2/standard), the macrophage activators were dissolved in 25 mM octylglucoside in the first dilution step and then diluted further with medium. After an incubating time of 45-48 hours, the nitrate was reduced with nitrate reductase and the starting substance nitrogen monoxide was determined, as the sum of nitrate and nitrite, using Griess' reagent. 1 unit (U)/ml is defined as the dilution at which half-maximal stimulation takes place.

With `Nc1ncnc2c1ncn2[C@@H]1O[C@@H]2COP(=O)(O)O[C@H]3[C@@H](O)[C@H](n4cnc5c(N)ncnc54)O[C@@H]3COP(=O)(O)O[C@H]2[C@H]1O` [c-diAMP], the antigen-specific antibody response result in assay [1] is on record as “strong antigen-specific antibody response”. On to MALP-2 [reference compound], for which the “differences in the expression of surface markers when concentration enhanced” value in assay [2] was “No differences”. Also, in assay [3], the “effect of adding a solubilizer (octylglucoside) on macrophage activation” value is “required”.
